5 compounds from US11952349B2, “Anti-cancer nuclear hormone receptor-targeting compounds” (Nuvation Bio Inc., priority 2019, dated 2024) can be followed below.

Experiment [1] deals with T1, ligand binding domain of the glucocorticoid receptor (Homo sapiens, UniProt P04150).
T1 construct: expressed in transfected cells
T1 sequence (P04150 524-758 limits assumed): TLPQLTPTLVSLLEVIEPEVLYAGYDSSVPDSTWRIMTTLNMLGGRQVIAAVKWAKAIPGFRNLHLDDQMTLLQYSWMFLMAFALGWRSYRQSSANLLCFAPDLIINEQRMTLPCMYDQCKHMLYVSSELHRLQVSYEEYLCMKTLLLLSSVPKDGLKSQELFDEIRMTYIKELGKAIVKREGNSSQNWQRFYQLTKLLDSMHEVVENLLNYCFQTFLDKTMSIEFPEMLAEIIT
Put plainly: GR antagonism assay (HEK293, dexamethasone 1.5 nM, Dual-glo). The class given is cell-based. The conditions noted are these: Table 8. As to the method:
GR antagonism assay: To evaluate GR antagonist activity, test compound was added to the assay plate (top dose 5 μM, 4 fold serial dilution, 8 point dose response). HEK293 cells stably expressing the ligand binding domain of the glucocorticoid receptor were seeded at a density of 40000 cells/well in the assay plate. The assay plate was then incubated at 37° C., 5% CO2 for 30 minutes. Dexamethasone was added to the assay plate at 1.5 nM final concentration and the assay plate was incubated at 37° C., 5% CO2 for 20 h. After the incubation period, Dual-glo luciferase reagent was added to the assay plate and mixed at room temperature for 20 minutes on an orbital shaker, before reading out on the EnVision plate reader.

Experiment [2] has as its target T2, GR, cytosol from IM-9 cells (Homo sapiens, UniProt P04150).
T2 construct: endogenous in cells; host or cells: IM-9 cells (cytosol)
T2 sequence (P04150 1-777): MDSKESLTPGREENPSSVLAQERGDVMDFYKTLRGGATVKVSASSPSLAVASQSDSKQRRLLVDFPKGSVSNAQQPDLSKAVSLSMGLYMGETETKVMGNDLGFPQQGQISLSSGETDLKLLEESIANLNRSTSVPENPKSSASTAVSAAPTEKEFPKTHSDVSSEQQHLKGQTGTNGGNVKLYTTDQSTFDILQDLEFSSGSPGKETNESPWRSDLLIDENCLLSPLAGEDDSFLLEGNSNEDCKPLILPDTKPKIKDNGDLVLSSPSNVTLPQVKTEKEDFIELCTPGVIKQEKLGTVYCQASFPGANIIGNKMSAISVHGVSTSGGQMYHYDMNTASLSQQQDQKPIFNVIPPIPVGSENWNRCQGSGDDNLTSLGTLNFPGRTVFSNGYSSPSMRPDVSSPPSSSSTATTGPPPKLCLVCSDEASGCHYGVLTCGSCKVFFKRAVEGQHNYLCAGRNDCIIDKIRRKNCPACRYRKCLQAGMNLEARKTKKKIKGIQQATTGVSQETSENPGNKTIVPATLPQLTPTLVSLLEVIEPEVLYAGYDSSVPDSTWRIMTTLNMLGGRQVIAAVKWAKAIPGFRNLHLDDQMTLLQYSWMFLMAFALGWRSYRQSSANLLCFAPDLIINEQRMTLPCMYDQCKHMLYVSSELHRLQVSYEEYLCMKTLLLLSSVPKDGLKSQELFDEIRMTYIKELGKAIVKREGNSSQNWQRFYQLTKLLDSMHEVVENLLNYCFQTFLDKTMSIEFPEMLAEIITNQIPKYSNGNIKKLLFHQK
Put plainly: GR binding assay, 3H-Dexamethasone. The conditions noted are these: Table 8; 3H-Dexamethasone 1.5 nM. As to the method: GR binding assay: To assess GR binding, test compound (top dose 1 μM, 4 fold serial dilution, 8 point dose response) and control (dexamethasone) were transferred to the assay plate. Cytosol from IM-9 cells was added to the plate, followed by addition of radiolabeled ^3H-Dexamethasone at a final concentration of 1.5 nM. The plate was sealed, and the reaction was incubated at 300 rpm at 4° C. for 24 hrs. Radioligand absorption buffer (10 mM Tris-HCl, pH 7.4; 1.5 mM EDTA; 1 mM DTT; 0.25% charcoal; 0.0025% dextran) was then added to the plate, mixed, and incubated at 4° C. for 15 minutes. The plate was then centrifuged at […] for 30 minutes at 4° C. The supernatant was transferred to the scint-tube and Tri-carb was used for scintillation counting. The data was analyzed using GraphPadPrism v5.0 and binding IC50 was determined as the concentration where 50% inhibition of radioligand binding was observed.

The next experiment has as its system T47D cells. Put plainly: Cell viability assay (CellTiterGlo, 6 days) T47D. The class given is cell-based. The conditions noted are these: Homo sapiens, 144 h, Table 8. As to the method:
Cell viability assay: LNCap, 22Rv1, and T47D cells were seeded at a density of 1500-2000 cells/well in 96 well plates, and a ‘T0’ (timepoint 0) was included along with the assay plate. The plates were then incubated at 37° C., 5% CO2 in a cell culture incubator overnight. On the next day, the ‘T0’ plate was assayed using CellTiterGlo (Promega, Inc) according to the manufacturer's instructions. The appropriate compounds were diluted in DMSO and added to the assay plate (final DMSO concentration of 0.2%) on the next day. The assay plates were incubated for 6 days at 37° C., 5% CO2. After the incubation period, the plates were assayed using CellTiterGlo (Promega, Inc) according to the manufacturer's instructions and luminescence was read on the EnVision plate reader. Inhibition the tested compounds was determined by the following formula: Inhibition rate (%)=(1−(RLU compound−RLU day0)/(RLU control−RLU day0))*100%. GraphPadPrism was used to analyze the data and determine absolute IC50 values.

Experiment [3] addresses T3, Progesterone Receptor (PR)-LBD (Homo sapiens, UniProt P06401).
T3 sequence (P06401 679-913 limits assumed): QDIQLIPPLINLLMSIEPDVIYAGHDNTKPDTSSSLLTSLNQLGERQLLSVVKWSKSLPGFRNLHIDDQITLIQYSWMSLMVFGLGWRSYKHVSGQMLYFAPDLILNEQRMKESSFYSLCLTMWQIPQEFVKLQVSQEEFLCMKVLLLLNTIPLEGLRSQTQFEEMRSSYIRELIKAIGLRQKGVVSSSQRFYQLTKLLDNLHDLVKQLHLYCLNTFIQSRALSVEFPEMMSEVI
Put plainly: PR coactivator antagonist assay. The class given is biochemical. The settings on record: Table 8; 10 nM progesterone; read-out: PR antagonism. As to the method: PR coactivator antagonist assay: Test compound (Top dose 10 μM, 4 fold serial dilution, 8 point dose response) and/or vehicle was incubated with the 2.5 nM Progesterone Receptor (PR)-LBD and coactivator peptide for 30 minutes at RT. Determination of the amount of complex formed is read spectrofluorimetrically (excitation: 337 nm, emission: 520/490 nm). Test compound-induced inhibition of 10 nM progesterone-induced fluorescence response by 50 percent or more (>50%) indicates receptor antagonist activity.

Molecules are shown by their SMILES.

With `CC#C[C@]1(O)CC[C@H]2[C@@H]3CCC4=CC(=O)CCC4=C3[C@@H](c3ccc(N(C)CCCCCC(=O)N4CCN(C(=O)c5cc(Cc6n[nH]c(=O)c7ccccc67)ccc5F)CC4)cc3)C[C@@]21C` [Compound 135, 4-(4-fluoro-3-(4-(6-((4-((8S,11R,13S,14S,17S)-17-hydroxy-13-methyl-3-oxo-17-(prop-1-ynyl)-2,3,6,7,8,11,12,13,14,15,16,17-dodecahydro-1H-cyclopenta[a]phenanthren-11-yl)phenyl)(methyl)amino)hexanoyl)piperazine-1-carbonyl)benzyl)phthalazin-1(2H)-one], the IC50 in experiment [1] is less than 10 nM; in experiment [2], less than 10 nM; in the experiment with T47D cells it was 100 to 1000 nM; in experiment [3], less than 10 nM.
Take `CC#C[C@]1(O)CC[C@H]2[C@@H]3CCC4=CC(=O)CCC4=C3[C@@H](c3ccc(N(C)CCCCCC(=O)NCCOCCOCC(=O)N4CCN(C(=O)c5cc(Cc6n[nH]c(=O)c7ccccc67)ccc5F)CC4)cc3)C[C@@]21C` [Compound 1429, N-(2-(2-(2-(4-(2-fluoro-5-((4-oxo-3,4-dihydrophthalazin-1-yl)methyl)benzoyl)piperazin-1-yl)-2-oxoethoxy)ethoxy)ethyl)-6-((4-((8S,11R,13S,14S,17S)-17-hydroxy-13-methyl-3-oxo-17-(prop-1-ynyl)-2,3,6,7,8,11,12,13,14,15,16,17-dodecahydro-1H-cyclopenta[a]phenanthren-11-yl)phenyl)(methyl)amino)hexanamide]: the IC50 in experiment [1] is 10 to 100 nM; in experiment [2], less than 10 nM; in the experiment on T47D cells it was more than 10000 nM; in experiment [3] it was less than 10 nM.
Regarding `CC(=O)O[C@]1(C(C)=O)CC[C@H]2[C@@H]3CCC4=CC(=O)CCC4=C3[C@@H](c3ccc(N(C)CCCCCC(=O)NCCOCCOCC(=O)N4CCN(C(=O)c5cc(Cc6n[nH]c(=O)c7ccccc67)ccc5F)CC4)cc3)C[C@@]21C` [Compound 1384, (8S,11R,13S,14S,17R)-17-acetyl-11-(4-((6-(2-(2-(2-(4-(2-fluoro-5-((4-oxo-3,4-dihydrophthalazin-1-yl)methyl)benzoyl)piperazin-1-yl)-2-oxoethoxy)ethoxy)ethylamino)-6-oxohexyl)(methyl)amino)phenyl)-13-methyl-3-oxo-2,3,6,7,8,11,12,13,14,15,16,17-dodecahydro-1H-cyclopenta[a]phenanthren-17-yl acetate], the IC50 is 10 to 100 nM in experiment [1], less than 10 nM in experiment [2], 1000 to 10000 nM with T47D cells and less than 10 nM in experiment [3].
Turning to `CC(=O)O[C@]1(C(C)=O)CC[C@H]2[C@@H]3CCC4=CC(=O)CCC4=C3[C@@H](c3ccc(N(C)CCCCCC(=O)N4CCN(C(=O)c5cc(Cc6n[nH]c(=O)c7ccccc67)ccc5F)CC4)cc3)C[C@@]21C` [Compound 1378, (8S,11R,13S,14S,17R)-17-acetyl-11-(4-((6-(4-(2-fluoro-5-((4-oxo-3,4-dihydrophthalazin-1-yl)methyl)benzoyl)piperazin-1-yl)-6-oxohexyl)(methyl)amino)phenyl)-13-methyl-3-oxo-2,3,6,7,8,11,12,13,14,15,16,17-dodecahydro-1H-cyclopenta[a]phenanthren-17-yl acetate], the IC50 in experiment [1] was less than 10 nM; in experiment [2], less than 10 nM; with T47D cells it was 100 to 1000 nM; in experiment [3] it was less than 10 nM.
For the compound `C[C@]12CC[C@H]3[C@@H](CCC4=CC(=O)CC[C@@]43C)[C@@H]1CC[C@@H]2C(=O)COCCCCCC(=O)N1CCN(C(=O)c2cc(Cc3n[nH]c(=O)c4ccccc34)ccc2F)CC1` [Compound 1386, 4-(3-(4-(6-(2-((8S,9S,10R,13S,14S,17S)-10,13-dimethyl-3-oxo-2,3,6,7,8,9,10,11,12,13,14,15,16,17-tetradecahydro-1H-cyclopenta[a]phenanthren-17-yl)-2-oxoethoxy)hexanoyl)piperazine-1-carbonyl)-4-fluorobenzyl)phthalazin-1(2H)-one], the IC50 in experiment [1] was 100 to 1000 nM; in experiment [2], 100 to 1000 nM; in the experiment with T47D cells, 100 to 1000 nM; in experiment [3], more than 10000 nM.
